#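 Exposure lasted 48 hours, with cells grown in 96-well plates and compounds tested at five concentrations. GI50 = concentration required for 50% inhibition of growth. TGI: total growth inhibition.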
# Experiments:
# Assay in all cases: growth of human tumour cells (NCI), 48 h
# TK-10 renal = system: TK-10 renal
# U251 CNS = system: U251 CNS
# RPMI-8226 leukemia = system: RPMI-8226 leukemia
# DU-145 prostate = system: DU-145 prostate
# NCI-H226 lung = system: NCI-H226 lung
# HT29 colon = system: HT29 colon
# NCI-H522 lung = system: NCI-H522 lung
# SF-295 CNS = system: SF-295 CNS
# LOX IMVI melanoma = system: LOX IMVI melanoma
# HCC-2998 colon = system: HCC-2998 colon
# HOP-92 NSCLC = system: HOP-92 NSCLC
# KM12 colon = system: KM12 colon
# 786-0 renal = system: 786-0 renal
# OVCAR-4 ovarian = system: OVCAR-4 ovarian
# HCT-116 colon = system: HCT-116 colon
# MOLT-4 leukemia = system: MOLT-4 leukemia
# M14 melanoma = system: M14 melanoma
# NCI-H23 lung = system: NCI-H23 lung
# PC-3 prostate = system: PC-3 prostate
# UACC-62 melanoma = system: UACC-62 melanoma
# HS 578T breast = system: HS 578T breast
# MDA-MB-435 = system: MDA-MB-435
# OVCAR-8 ovarian = system: OVCAR-8 ovarian
# CCRF-CEM leukemia = system: CCRF-CEM leukemia
# MDA-MB-231 breast = system: MDA-MB-231 breast
# HOP-62 NSCLC = system: HOP-62 NSCLC
# RXF 393 renal = system: RXF 393 renal
# COLO 205 colon = system: COLO 205 colon
# MALME-3M melanoma = system: MALME-3M melanoma
# SW-620 colon = system: SW-620 colon
# SK-MEL-5 melanoma = system: SK-MEL-5 melanoma
# SNB-75 CNS = system: SNB-75 CNS
# NCI/ADR-RES ovarian = system: NCI/ADR-RES ovarian
# SNB-19 CNS = system: SNB-19 CNS
# SR leukemia = system: SR leukemia
# UACC-257 melanoma = system: UACC-257 melanoma
# NCI-H460 lung = system: NCI-H460 lung
# A549 NSCLC = system: A549 NSCLC
# EKVX NSCLC = system: EKVX NSCLC
# SF-268 CNS = system: SF-268 CNS
# SK-MEL-2 melanoma = system: SK-MEL-2 melanoma
# MCF7 breast = system: MCF7 breast
# HCT-15 colon = system: HCT-15 colon
# HL-60(TB) leukemia = system: HL-60(TB) leukemia
# OVCAR-3 ovarian = system: OVCAR-3 ovarian
# A498 renal = system: A498 renal
# CAKI-1 renal = system: CAKI-1 renal
# SK-MEL-28 melanoma = system: SK-MEL-28 melanoma
# SK-OV-3 ovarian = system: SK-OV-3 ovarian
# T-47D breast = system: T-47D breast
# UO-31 renal = system: UO-31 renal
# BT-549 breast = system: BT-549 breast
# OVCAR-5 ovarian = system: OVCAR-5 ovarian
# SN12C renal = system: SN12C renal
# MDA-MB-468 breast = system: MDA-MB-468 breast
# ACHN renal = system: ACHN renal
# SF-539 CNS = system: SF-539 CNS
# IGROV1 ovarian = system: IGROV1 ovarian
smiles,measurement,setting,value
COc1cc2oc(-c3cccc(C(=O)Nc4ccc(Cl)cc4)c3)cc(=O)c2c(OCCNC(=O)[C@@H](N)CO)c1OC,GI50,TK-10 renal,16.9 µM
same,TGI,TK-10 renal,37 µM
same,GI50,U251 CNS,2.02 µM
same,TGI,U251 CNS,3.9 µM
same,GI50,RPMI-8226 leukemia,3.36 µM
same,TGI,RPMI-8226 leukemia,> 100 µM
same,GI50,DU-145 prostate,16 µM
same,TGI,DU-145 prostate,35.4 µM
same,GI50,NCI-H226 lung,12.8 µM
same,TGI,NCI-H226 lung,53 µM
same,GI50,HT29 colon,6.44 µM
same,TGI,HT29 colon,26.6 µM
same,GI50,NCI-H522 lung,3.61 µM
same,TGI,NCI-H522 lung,18 µM
same,GI50,SF-295 CNS,6.84 µM
same,TGI,SF-295 CNS,25.1 µM
same,GI50,LOX IMVI melanoma,1.79 µM
same,TGI,LOX IMVI melanoma,3.5 µM
same,GI50,HCC-2998 colon,5.83 µM
same,TGI,HCC-2998 colon,19.3 µM
same,GI50,HOP-92 NSCLC,2.65 µM
same,TGI,HOP-92 NSCLC,12.7 µM
same,GI50,KM12 colon,15.3 µM
same,TGI,KM12 colon,29.1 µM
same,GI50,786-0 renal,13.2 µM
same,TGI,786-0 renal,32.4 µM
same,GI50,OVCAR-4 ovarian,12.8 µM
same,TGI,OVCAR-4 ovarian,30.3 µM
same,GI50,HCT-116 colon,4.72 µM
same,TGI,HCT-116 colon,19.5 µM
same,GI50,MOLT-4 leukemia,2.4 µM
same,TGI,MOLT-4 leukemia,5.18 µM
same,GI50,M14 melanoma,1.84 µM
same,TGI,M14 melanoma,3.72 µM
same,GI50,NCI-H23 lung,12.6 µM
same,TGI,NCI-H23 lung,30.2 µM
same,GI50,PC-3 prostate,10.8 µM
same,TGI,PC-3 prostate,35.6 µM
same,GI50,UACC-62 melanoma,13.5 µM
same,TGI,UACC-62 melanoma,31.6 µM
same,GI50,HS 578T breast,4.32 µM
same,TGI,HS 578T breast,18.2 µM
same,GI50,MDA-MB-435,4.59 µM
same,TGI,MDA-MB-435,17.8 µM
same,GI50,OVCAR-8 ovarian,10.1 µM
same,TGI,OVCAR-8 ovarian,21.7 µM
same,GI50,CCRF-CEM leukemia,2.39 µM
same,TGI,CCRF-CEM leukemia,5.83 µM
same,GI50,MDA-MB-231 breast,2.87 µM
same,TGI,MDA-MB-231 breast,9.37 µM
same,GI50,HOP-62 NSCLC,7.74 µM
same,TGI,HOP-62 NSCLC,29 µM
same,GI50,RXF 393 renal,8.76 µM
same,TGI,RXF 393 renal,67.6 µM
same,GI50,COLO 205 colon,6 µM
same,TGI,COLO 205 colon,20.2 µM
same,GI50,MALME-3M melanoma,2.47 µM
same,TGI,MALME-3M melanoma,6.92 µM
same,GI50,SW-620 colon,3.93 µM
same,TGI,SW-620 colon,14.1 µM
same,GI50,SK-MEL-5 melanoma,9.11 µM
same,TGI,SK-MEL-5 melanoma,26.6 µM
same,GI50,SNB-75 CNS,10.2 µM
same,TGI,SNB-75 CNS,24.3 µM
same,GI50,NCI/ADR-RES ovarian,> 100 µM
same,TGI,NCI/ADR-RES ovarian,> 100 µM
same,GI50,SNB-19 CNS,4.94 µM
same,TGI,SNB-19 CNS,18 µM
same,GI50,SR leukemia,2.66 µM
same,TGI,SR leukemia,7.75 µM
same,GI50,UACC-257 melanoma,1.97 µM
same,TGI,UACC-257 melanoma,3.74 µM
same,GI50,NCI-H460 lung,8.48 µM
same,TGI,NCI-H460 lung,22.1 µM
same,GI50,A549 NSCLC,> 100 µM
same,TGI,A549 NSCLC,> 100 µM
same,GI50,EKVX NSCLC,16.8 µM
same,TGI,EKVX NSCLC,> 100 µM
same,GI50,SF-268 CNS,13.9 µM
same,TGI,SF-268 CNS,32.4 µM
same,GI50,SK-MEL-2 melanoma,2.1 µM
same,TGI,SK-MEL-2 melanoma,5.03 µM
same,GI50,MCF7 breast,3.53 µM
same,TGI,MCF7 breast,13.3 µM
same,GI50,HCT-15 colon,19.6 µM
same,TGI,HCT-15 colon,> 100 µM
same,GI50,HL-60(TB) leukemia,8.2 µM
same,TGI,HL-60(TB) leukemia,30.4 µM
same,GI50,OVCAR-3 ovarian,13.4 µM
same,TGI,OVCAR-3 ovarian,26.9 µM
same,GI50,A498 renal,32.8 µM
same,TGI,A498 renal,65.7 µM
same,GI50,CAKI-1 renal,65.4 µM
same,TGI,CAKI-1 renal,> 100 µM
same,GI50,SK-MEL-28 melanoma,1.77 µM
same,TGI,SK-MEL-28 melanoma,3.46 µM
same,GI50,SK-OV-3 ovarian,14.8 µM
same,TGI,SK-OV-3 ovarian,38.2 µM
same,GI50,T-47D breast,4.19 µM
same,TGI,T-47D breast,21.9 µM
same,GI50,UO-31 renal,45.6 µM
same,TGI,UO-31 renal,> 100 µM
same,GI50,BT-549 breast,10.3 µM
same,TGI,BT-549 breast,25.4 µM
same,GI50,OVCAR-5 ovarian,9.96 µM
same,TGI,OVCAR-5 ovarian,44.3 µM
same,GI50,SN12C renal,6.64 µM
same,TGI,SN12C renal,21.4 µM
same,GI50,MDA-MB-468 breast,1.51 µM
same,TGI,MDA-MB-468 breast,3.63 µM
same,GI50,ACHN renal,30.6 µM
same,TGI,ACHN renal,> 100 µM
same,GI50,SF-539 CNS,11.3 µM
same,TGI,SF-539 CNS,24.5 µM
same,GI50,IGROV1 ovarian,7.15 µM
same,TGI,IGROV1 ovarian,23.9 µM
N=C(N)c1ccc(-c2ccc(-c3ccccc3)o2)o1,GI50,MDA-MB-468 breast,1.64 µM
same,TGI,MDA-MB-468 breast,4.19 µM
O=C(/C=C/c1ccco1)c1cccc(Nc2nc(Nc3ccccc3)nc(Nc3ccccc3)n2)c1,GI50,MDA-MB-468 breast,2.8 µM
same,TGI,MDA-MB-468 breast,28.9 µM
O=C(Nc1ccc(-n2cc(-c3ccncc3)c(-c3ccc(Cl)c(O)c3)n2)cc1)c1ccc(Cl)c(C(F)(F)F)c1,GI50,MDA-MB-468 breast,1.84 µM
same,TGI,MDA-MB-468 breast,5.68 µM
Nc1c(C(=O)Nc2cccc3ccccc23)sc2nc3c(cc12)CCCCCC3,GI50,MDA-MB-468 breast,0.675 µM
same,TGI,MDA-MB-468 breast,11.6 µM
OC(c1cc2c(Cl)cc(Cl)cc2c2cc(C(F)(F)F)ccc12)C1CCCCN1 (stereo unspecified),GI50,MDA-MB-468 breast,1.71 µM
same,TGI,MDA-MB-468 breast,3.22 µM
